Laboratory results: ChEMBL document CHEMBL1201862, “PubChem BioAssay data set” (2004)
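Test compounds were applied to cells in 96-well plates for 48 hours at 5 doses. Here, GI50 denotes the concentration required for 50% inhibition of growth.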 The source made the active and inactive calls. No stated cut-off is given here; in the data, active = GI50 up to about 1.1 µM and inactive = higher. *1 amine or outer side, *2 acyl side, *3 side chain or, on linkers, in order; H or OH if unused. Where a SMILES comes first, the peptide text is derived from it. [ ]: non-standard residue; d: D form. The star is where a group is joined. ξ: configuration not given here. NMeY = CN[C@@H](Cc1ccc(O)cc1)C(=O)O; Ethylenediamine = C(CN[*:2])N[*:1]; ξNMeL = CNC(CC(C)C)C(=O)O; Cbz = O=C(OCc1ccccc1)*; Lac = C[C@H](O)C(=O)O; ξA = CC(N)C(=O)O

Columns and labels:
Experiment in all cases: NCI-60 cell line screen, 48 h
[1] = tested on: KM12
[2] = tested on: HCT-15
[3] = tested on: UO-31
[4] = tested on: CAKI-1
[5] = tested on: MDA-MB-231
[6] = tested on: SF-539
[7] = tested on: SF-295
[8] = tested on: SNB-19
[9] = tested on: OVCAR-4
[10] = tested on: OVCAR-8
[11] = tested on: UACC-257
[12] = tested on: M14
[13] = tested on: SR
[14] = tested on: MDA-MB-435
[15] = tested on: SK-MEL-28
[16] = tested on: DU-145
[17] = tested on: HCC 2998
[18] = tested on: OVCAR-3
[19] = tested on: RXF 393
[20] = tested on: NCI-H23

| SMILES | GI50 [1] | GI50 [2] | GI50 [3] | GI50 [4] | GI50 [5] | GI50 [6] | GI50 [7] | GI50 [8] | GI50 [9] | GI50 [10] | GI50 [11] | GI50 [12] | GI50 [13] | GI50 [14] | GI50 [15] | GI50 [16] | GI50 [17] | GI50 [18] | GI50 [19] | GI50 [20] |
| --- | --- | --- | --- | --- | --- | --- | --- | --- | --- | --- | --- | --- | --- | --- | --- | --- | --- | --- | --- | --- |
| O=C(/C=C/c1ccccc1)OCC1=C[C@@H](O)[C@@H]2C=CO[C@@H](OC3OC(CO)C(O)C(O)C3O)[C@H]12 (stereo not given in full) | > 100 µM (inactive) | > 100 µM | > 100 µM (inactive) | > 100 µM (inactive) | > 100 µM (inactive) | > 100 µM (inactive) | > 100 µM (inactive) | 95.9 µM (inactive) | 67.6 µM (inactive) | > 100 µM (inactive) | > 100 µM (inactive) | > 100 µM (inactive) | > 100 µM (inactive) | > 100 µM (inactive) | > 100 µM (inactive) | > 100 µM (inactive) | > 100 µM (inactive) | > 100 µM (inactive) | > 100 µM (inactive) | > 100 µM (inactive) |
| O=C1OC2C(O)C(=O)OC2C1O (stereo not given) | > 100 µM (inactive) | > 100 µM | > 100 µM (inactive) | > 100 µM (inactive) | > 100 µM (inactive) | > 100 µM (inactive) | > 100 µM (inactive) | > 100 µM (inactive) | > 100 µM (inactive) | > 100 µM (inactive) | > 100 µM (inactive) | > 100 µM (inactive) | > 100 µM (inactive) | > 100 µM (inactive) | > 100 µM (inactive) | > 100 µM (inactive) | > 100 µM (inactive) | > 100 µM (inactive) | > 100 µM (inactive) | > 100 µM (inactive) |
| O=c1[nH]c2ccc(C(F)(F)F)cc2nc1C(F)(F)F | 22.8 µM (inactive) | 27.9 µM | 20.7 µM (inactive) | 30.3 µM (inactive) | 28.3 µM (inactive) | 21.3 µM (inactive) | 28.7 µM (inactive) | 28 µM (inactive) | 36.6 µM (inactive) | 25.3 µM (inactive) | 23.6 µM (inactive) | 31.9 µM (inactive) | 39.4 µM (inactive) | 31.2 µM (inactive) | 28.8 µM (inactive) | 23.2 µM (inactive) | 43.4 µM (inactive) | 14.9 µM (inactive) | 5 µM (inactive) | 18.1 µM (inactive) |
| CN(CCc1ccccn1)C(=S)N/N=C/c1ccccn1 | 0.0719 µM (active) | 0.0148 µM | 0.139 µM (active) | < 0.01 µM (active) | < 0.01 µM (active) | 0.0935 µM (active) | 0.147 µM (active) | 4.69 µM (inactive) | 0.112 µM (active) | 0.0308 µM (active) | < 0.0213 µM (active) | < 0.0226 µM (active) | < 0.01 µM (active) | 0.678 µM (active) | 0.442 µM (active) | 0.298 µM (active) | 0.23 µM (active) | < 0.01 µM (active) | 0.126 µM (active) | < 0.0275 µM (active) |
| CO[C@H]1Nc2c(ccc(C)c2O)C(=O)N2C=C(/C=C/C(N)=O)C[C@@H]12 [ANTHRAMYCIN METHYL ETHER] | 0.0303 µM (active) | 0.0283 µM | 0.0175 µM (active) | 0.047 µM (active) | 0.0159 µM (active) | 0.0185 µM (active) | 0.0199 µM (active) | < 0.0179 µM (active) | 0.052 µM (active) | 0.0394 µM (active) | 0.0596 µM (active) | 0.0143 µM (active) | < 0.0234 µM (active) | 0.014 µM (active) | 0.0299 µM (active) | 0.0377 µM (active) | 0.0436 µM (active) | 0.0516 µM (active) | 0.0296 µM (active) | 0.0327 µM (active) |
| O=C(CC(=O)N1N=C(N(c2ccccc2)c2ccccc2)CC1c1ccccc1)Nc1cccc(Cl)c1 (stereo not given) | > 100 µM (inactive) | > 100 µM | > 100 µM (inactive) | > 100 µM (inactive) | > 100 µM (inactive) | > 100 µM (inactive) | > 100 µM (inactive) | > 100 µM (inactive) | > 100 µM (inactive) | > 100 µM (inactive) | > 100 µM (inactive) | > 100 µM (inactive) | > 100 µM (inactive) | > 100 µM (inactive) | > 100 µM (inactive) | > 100 µM (inactive) | > 100 µM (inactive) | > 100 µM (inactive) | > 100 µM (inactive) | > 100 µM (inactive) |
| CC(O)c1cc2c(s1)C(=O)c1sccc1C2=O (stereo not given) | 0.234 µM (active) | 0.0454 µM | 0.185 µM (active) | 0.552 µM (active) | 0.172 µM (active) | 0.0401 µM (active) | 0.0792 µM (active) | 0.136 µM (active) | 0.168 µM (active) | 0.191 µM (active) | 0.0183 µM (active) | 0.0185 µM (active) | 0.0803 µM (active) | 0.0203 µM (active) | 0.047 µM (active) | 0.0202 µM (active) | 0.202 µM (active) | 0.187 µM (active) | 0.172 µM (active) | 0.0155 µM (active) |
| CN(C)Cc1cc(C(=O)/C=C/c2c(Cl)cccc2Cl)cc(CN(C)C)c1O | 2.65 µM (inactive) | 10.8 µM | 2.79 µM (inactive) | 2.88 µM (inactive) | 4.61 µM (inactive) | 14.5 µM (inactive) | 8.51 µM (inactive) | 14.8 µM (inactive) | 8.55 µM (inactive) | 3.55 µM (inactive) | 4.46 µM (inactive) | 4.91 µM (inactive) | 3.18 µM (inactive) | 9.2 µM (inactive) | 8.49 µM (inactive) | 8.2 µM (inactive) | 19 µM (inactive) | 5.7 µM (inactive) | 5.7 µM (inactive) | 14.6 µM (inactive) |
| COC(=O)C1=C(O)C(C(=O)OC)[C@]2(O)[C@H](C(=O)OC)[C@H]1C[C@@H](c1ccc(O)cc1)[C@H]2C(=O)OC (stereo not given in full) | 21.8 µM (inactive) | 26.1 µM | 45 µM (inactive) | 21.2 µM (inactive) | 23.1 µM (inactive) | 30.3 µM (inactive) | 22 µM (inactive) | 30.2 µM (inactive) | 36.4 µM (inactive) | 33.4 µM (inactive) | 19.4 µM (inactive) | 25.4 µM (inactive) | 23.2 µM (inactive) | 18.7 µM (inactive) | 41.8 µM (inactive) | 23.1 µM (inactive) | 19.9 µM (inactive) | 11.5 µM (inactive) | 15.8 µM (inactive) | 28.1 µM (inactive) |
| CC(C)(C)NC(=O)C12C3C4C1C1C2C3C41C(=O)NC(C)(C)C (stereo not given) | > 100 µM (inactive) | > 100 µM | > 100 µM (inactive) | > 100 µM (inactive) | > 100 µM (inactive) | > 100 µM (inactive) | 80 µM (inactive) | 47.8 µM (inactive) | > 100 µM (inactive) | > 100 µM (inactive) | > 100 µM (inactive) | > 100 µM (inactive) | 45.6 µM (inactive) | > 100 µM (inactive) | > 100 µM (inactive) | > 100 µM (inactive) | > 100 µM (inactive) | > 100 µM (inactive) | 40.8 µM (inactive) | > 100 µM (inactive) |
| CC(=O)OC1C[C@@H](C)C2(C[C@H](O)c3ccoc3)C(=O)OC[C@]13C2CCC(O)C31CO1 (stereo not given in full) | > 100 µM (inactive) | > 100 µM | > 100 µM (inactive) | > 100 µM (inactive) | > 100 µM (inactive) | > 100 µM (inactive) | > 100 µM (inactive) | > 100 µM (inactive) | > 100 µM (inactive) | > 100 µM (inactive) | > 100 µM (inactive) | > 100 µM (inactive) | > 100 µM (inactive) | > 100 µM (inactive) | > 100 µM (inactive) | > 100 µM (inactive) | > 100 µM (inactive) | > 100 µM (inactive) | > 100 µM (inactive) | > 100 µM (inactive) |
| COc1ccc(C[C@@H](C(=O)NCCNC(=O)C(CC(C)C)N(C)C(=O)[C@@H]2CCCN2C(=O)[C@H](C)O)N(C)C(=O)[C@@H]2CCCN2C(=O)[C@H](CC(C)C)NC(=O)C(C)NC(=O)OCc2ccccc2)cc1 (stereo not given in full) (Cbz-[ξA]LP[NMeY](Me)-{Ethylenediamine-ξNMeL-Pro-Lac}) | > 100 µM (inactive) | 82 µM | > 100 µM (inactive) | > 100 µM (inactive) | 91.4 µM (inactive) | > 100 µM (inactive) | > 100 µM (inactive) | > 100 µM (inactive) | > 100 µM (inactive) | > 100 µM (inactive) | 46.1 µM (inactive) | > 100 µM (inactive) | 54.3 µM (inactive) | 54.2 µM (inactive) | > 100 µM (inactive) | > 100 µM (inactive) | > 100 µM (inactive) | > 100 µM (inactive) | 97.7 µM (inactive) | > 100 µM (inactive) |
| O=C1CC[C@@]2(O)[C@H]3Cc4ccc(-c5ccccc5)c5c4[C@@]2(CCN3CC2CC2)[C@H]1O5 | 18.9 µM (inactive) | 16.8 µM | 16.1 µM (inactive) | 18.3 µM (inactive) | 15.2 µM (inactive) | 16.8 µM (inactive) | 19.2 µM (inactive) | 25.5 µM (inactive) | 35.9 µM (inactive) | 16.1 µM (inactive) | 16 µM (inactive) | 17.6 µM (inactive) | 25.9 µM (inactive) | 13.2 µM (inactive) | 42.4 µM (inactive) | 23.3 µM (inactive) | 18.4 µM (inactive) | 18.1 µM (inactive) | 9.66 µM (inactive) | 24.1 µM (inactive) |
| CC1CC(=O)N(N(C)C)C(C#N)(C#N)C1(C#N)C#N (stereo not given) | > 44.1 µM (inactive) | 16.3 µM | 16.9 µM (inactive) | 2.3 µM (inactive) | 15.2 µM (inactive) | 24.2 µM (inactive) | > 50.1 µM (inactive) | 28.7 µM (inactive) | 18.3 µM (inactive) | 20.9 µM (inactive) | 15.1 µM (inactive) | 15.8 µM (inactive) | 4.99 µM (inactive) | 17 µM (inactive) | 16.1 µM (inactive) | 18.2 µM (inactive) | 18.5 µM (inactive) | 20.5 µM (inactive) | 10.6 µM (inactive) | 20 µM (inactive) |
